From ChEMBL document CHEMBL1201862, “PubChem BioAssay data set” (2004) come the findings set out here.

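Results reflect a 48-hour exposure of cells in 96-well plates to compound at five concentrations. Abbreviation: GI50, concentration required for 50% inhibition of growth.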 Activity calls are given as the source filed them. Cut-off read from the data, not from the text of the source: active = GI50 up to about 1.1 µM and inactive = higher.

As a reminder, the GI50 is the concentration at which growth is held to half of that of the control.

Some test systems named below: NCI-H226; NCI/ADR-RES; Hs-578T; HOP-92; MDA-MB-435; NCI-H460; ACHN; SF-539; OVCAR-8; SNB-19; SW-620; EKVX; MDA-N; UACC-62; SNB-75; RPMI-8226; T47D; 786-0; SK-MEL-28; SR.
Experiment in all cases: DTP human tumour cell line panel, 48 h

As for `O=C1Nc2ccc(Br)cc2C1=Nc1cccnc1`, the GI50 was 31.4 µM (inactive) in the assay on NCI-H226; 24.8 µM (inactive) in the assay on NCI/ADR-RES; 19.9 µM (inactive) in the assay with Hs-578T; > 100 µM (inactive) in the assay on HOP-92; 13 µM (inactive) in the assay on MDA-MB-435; > 100 µM (inactive) in the assay on NCI-H460. Also, the GI50 in the assay with ACHN is 18.3 µM (inactive); in the assay on SF-539 it was 16.5 µM (inactive); in the assay on OVCAR-8, 25.3 µM (inactive); with SNB-19, 41.2 µM (inactive); in the assay on SW-620 it was 17.8 µM (inactive); with EKVX, 24.3 µM (inactive). For the same compound, the GI50 with MDA-N is 17 µM (inactive); in the assay with UACC-62, 17.3 µM (inactive); with SNB-75, > 100 µM (inactive); with RPMI-8226, 21.4 µM (inactive); in the assay with T47D, 20.6 µM (inactive); in the assay with 786-0, 20.5 µM (inactive). Further, the GI50 in the assay on SK-MEL-28 is 19.5 µM (inactive).
Consider `CCc1ncc(CO)n1Cc1cccc2ccccc12`, for which the GI50 was > 100 µM (inactive) in the assay on NCI-H226; 50.9 µM (inactive) with NCI/ADR-RES; > 100 µM (inactive) in the assay with Hs-578T; 86.1 µM (inactive) with HOP-92; > 100 µM (inactive) in the assay with MDA-MB-435; > 100 µM (inactive) in the assay on NCI-H460. The GI50 in the assay with ACHN, in the assay with SF-539, in the assay on OVCAR-8, with SNB-19, in the assay with SW-620 and in the assay with EKVX was > 100 µM (inactive) each time. For the same compound, the GI50 in the assay with MDA-N is > 100 µM (inactive); in the assay on UACC-62 it was > 100 µM (inactive); in the assay on SNB-75 it was 31.3 µM (inactive); with RPMI-8226 it was 73.3 µM (inactive); with T47D, 77.3 µM (inactive); in the assay on 786-0, > 100 µM (inactive). Besides, the GI50 in the assay on SK-MEL-28 is > 100 µM (inactive).
As for `O=C(O)/C(O)=C\C(=O)c1ccc(Br)cc1`, the GI50 with NCI-H226, in the assay with NCI/ADR-RES, with Hs-578T, with HOP-92, in the assay with MDA-MB-435 and in the assay on NCI-H460 was > 100 µM (inactive) each time. For the same compound, the GI50 in the assay on ACHN is > 100 µM (inactive); in the assay with OVCAR-8 it was > 100 µM (inactive); with SNB-19, > 100 µM (inactive); in the assay on SW-620, > 100 µM (inactive); in the assay with EKVX, 2.98 µM (inactive); with MDA-N, > 100 µM (inactive). The GI50 in the assay on UACC-62, in the assay on SNB-75, in the assay with RPMI-8226, in the assay on T47D, with 786-0 and in the assay on SK-MEL-28 was > 100 µM (inactive) throughout.
`CCN1C(=O)CS/C1=N\NC(=O)CSc1nc2ccccc2c(=O)n1CC`: the GI50 in the assay on NCI-H226 was > 100 µM (inactive); in the assay on NCI/ADR-RES it was > 100 µM (inactive); with Hs-578T it was > 100 µM (inactive); in the assay with MDA-MB-435 it was > 100 µM (inactive); with NCI-H460 it was 10.3 µM (inactive); with ACHN it was > 100 µM (inactive). Moreover, the GI50 in the assay on SF-539, in the assay with OVCAR-8, with SR, in the assay on SNB-19, with SW-620 and in the assay on EKVX was > 100 µM (inactive) each time. Moreover, the GI50 in the assay on MDA-N, in the assay with UACC-62, in the assay with SNB-75, in the assay on RPMI-8226, in the assay with T47D and in the assay with 786-0 was > 100 µM (inactive) in each case. For the same compound, the GI50 with SK-MEL-28 is > 100 µM (inactive).
Take `COc1ccc(C2OC(c3ccncc3)=NN2C)cc1F` (configuration not stated): the GI50 with NCI-H226, in the assay with NCI/ADR-RES, with Hs-578T, in the assay on HOP-92, in the assay with MDA-MB-435 and with NCI-H460 was > 100 µM (inactive) each time. Also, the GI50 in the assay with ACHN, in the assay on SF-539, in the assay on OVCAR-8, in the assay on SNB-19, with SW-620 and in the assay on EKVX was > 100 µM (inactive) in each case. Also, the GI50 with MDA-N, in the assay with UACC-62, in the assay on RPMI-8226, in the assay with T47D, in the assay with 786-0 and in the assay with SK-MEL-28 was > 100 µM (inactive) in each case.
As to `Cc1ccc(C2SCc3nc4ccccc4n32)cc1` (configuration not stated), the GI50 with NCI-H226 is 1.88 µM (inactive); in the assay with NCI/ADR-RES, 2.37 µM (inactive); in the assay with Hs-578T, 2.61 µM (inactive); in the assay with HOP-92, 3.74 µM (inactive); in the assay with MDA-MB-435, 0.451 µM (active); with NCI-H460, 3.76 µM (inactive). The GI50 in the assay on ACHN is 5.32 µM (inactive); with SF-539 it was 2.29 µM (inactive); in the assay on OVCAR-8 it was 3.66 µM (inactive); with SNB-19, 4.65 µM (inactive); in the assay on SW-620 it was 4.84 µM (inactive); in the assay with EKVX, 5.35 µM (inactive). The GI50 was 0.407 µM (active) with MDA-N; 2.43 µM (inactive) in the assay on UACC-62; 0.0103 µM (active) in the assay on SNB-75; 5.31 µM (inactive) with RPMI-8226; 10.3 µM (inactive) with T47D; 5.62 µM (inactive) in the assay on 786-0. Also, the GI50 with SK-MEL-28 was 6.62 µM (inactive).
`CC1=NN(c2cccc(Cl)c2)C(=N/c2nc3ccccc3s2)/C1=C\C=C\c1ccccc1`: the GI50 with NCI-H226 is 79.8 µM (inactive); with NCI/ADR-RES, 59.2 µM (inactive); in the assay with Hs-578T, 24.3 µM (inactive); with MDA-MB-435, 33.8 µM (inactive); with NCI-H460 it was 29.7 µM (inactive); with ACHN, 28 µM (inactive). Besides, the GI50 in the assay on SF-539 is 43.8 µM (inactive); with OVCAR-8, 36.1 µM (inactive); in the assay with SR, 0.359 µM (active); in the assay with SW-620, > 100 µM (inactive); in the assay on EKVX it was 47.6 µM (inactive); in the assay on MDA-N, 37.2 µM (inactive). Besides, the GI50 in the assay on RPMI-8226 is 18.9 µM (inactive); in the assay with T47D it was 46.7 µM (inactive); in the assay with 786-0, 41.4 µM (inactive); with SK-MEL-28 it was 29.3 µM (inactive).
For the compound `Nc1nc(Cl)cc(NCC2(CO)CCC(CCc3ccccc3)C2)n1` (configuration not stated), the GI50 in the assay with NCI-H226 is 16.5 µM (inactive); in the assay with NCI/ADR-RES, 11.9 µM (inactive); in the assay with Hs-578T, 21.3 µM (inactive); in the assay on HOP-92, 15.5 µM (inactive); with MDA-MB-435, 14.3 µM (inactive); in the assay with NCI-H460 it was 12 µM (inactive). For the same compound, the GI50 in the assay with ACHN is 13.8 µM (inactive); with SF-539 it was 17.9 µM (inactive); in the assay on OVCAR-8, 14.6 µM (inactive); in the assay on SNB-19, 15.9 µM (inactive); in the assay with SW-620, 2.02 µM (inactive); with EKVX it was 0.771 µM (active). Moreover, the GI50 is 14.2 µM (inactive) in the assay with MDA-N; 13.2 µM (inactive) in the assay on UACC-62; 20.8 µM (inactive) with SNB-75; 2.86 µM (inactive) with RPMI-8226; 0.877 µM (active) in the assay on T47D; 15.7 µM (inactive) with 786-0. For the same compound, the GI50 in the assay on SK-MEL-28 is 19.6 µM (inactive).
Regarding `O=C(/C=C\Nc1ccccc1O)C(Cl)(Cl)Cl`, the GI50 in the assay on NCI-H226 is > 100 µM (inactive); with NCI/ADR-RES, 99.3 µM (inactive); in the assay with Hs-578T, 69 µM (inactive); with HOP-92 it was 70.5 µM (inactive); in the assay on MDA-MB-435 it was 20.6 µM (inactive); in the assay with NCI-H460 it was 53.7 µM (inactive). For the same compound, the GI50 with ACHN was 26.9 µM (inactive); in the assay on SF-539, 56.2 µM (inactive); in the assay with OVCAR-8, 35.9 µM (inactive); in the assay with SNB-19, 76.2 µM (inactive); with SW-620, > 100 µM (inactive); in the assay on EKVX it was 45.7 µM (inactive). In addition, the GI50 was 25.3 µM (inactive) in the assay with MDA-N; < 0.01 µM (active) with UACC-62; 30.3 µM (inactive) in the assay on SNB-75; 25.3 µM (inactive) with RPMI-8226; 28 µM (inactive) in the assay with T47D; 22.8 µM (inactive) in the assay on 786-0. Besides, in the assay with SK-MEL-28, the GI50 is 43.1 µM (inactive).
As to `COc1cccc(C2c3cc4c(cc3OC(N3CCCC3)C2c2ccccc2)OCO4)c1O` (configuration not stated), the GI50 was 9.91 µM (inactive) in the assay with NCI/ADR-RES; 0.279 µM (active) in the assay on Hs-578T; 6.59 µM (inactive) in the assay with MDA-MB-435; 8.22 µM (inactive) with NCI-H460; 3.72 µM (inactive) with ACHN; 6.78 µM (inactive) in the assay with SF-539. Moreover, the GI50 in the assay with OVCAR-8 was 10.3 µM (inactive); in the assay on SR, 4.76 µM (inactive); with SNB-19, 5.57 µM (inactive); in the assay on SW-620, 7.78 µM (inactive); in the assay with EKVX, 16.6 µM (inactive); in the assay with MDA-N, 8.18 µM (inactive). Further, the GI50 in the assay with UACC-62 was 14.1 µM (inactive); in the assay on SNB-75, 5.74 µM (inactive); with RPMI-8226, 5.69 µM (inactive); in the assay on T47D it was 5.97 µM (inactive); in the assay with 786-0 it was 8.32 µM (inactive); in the assay on SK-MEL-28, 13 µM (inactive).
For the compound `COC(=O)c1cc(C)ccc1C1CN=NC12Cc1ccc(C)cc1C2=O` (configuration not stated), the GI50 is 24.8 µM (inactive) in the assay with NCI-H226; 28.5 µM (inactive) in the assay with NCI/ADR-RES; 45.6 µM (inactive) with Hs-578T; 19.1 µM (inactive) in the assay on HOP-92; 32.2 µM (inactive) in the assay on MDA-MB-435; 34.1 µM (inactive) with NCI-H460. The GI50 is 38.6 µM (inactive) with ACHN; 60.4 µM (inactive) with SF-539; 56.4 µM (inactive) with OVCAR-8; 55.2 µM (inactive) in the assay on SNB-19; 53.2 µM (inactive) in the assay with SW-620; 46.5 µM (inactive) in the assay with EKVX. The GI50 with MDA-N was 31.6 µM (inactive); in the assay on UACC-62 it was 54.7 µM (inactive); in the assay with SNB-75, 30.3 µM (inactive); in the assay on T47D it was 31.8 µM (inactive); in the assay on 786-0, > 100 µM (inactive); in the assay on SK-MEL-28, > 100 µM (inactive).
